Assay results taken from patent US12194027B2, “Small molecule inhibitors of GPCR GPR68 and related receptors for treating cancer, glioblastoma, and other indications” (UNIVERSITY OF MARYLAND, BALTIMORE, priority 2019, dated 2025).

How the values were obtained:
GPR68-GFP = GPR68-GFP (Homo sapiens (Human), UniProt Q15743); assay: SRE-luciferase assay, GPR68-GFP transfected HEK293T; format: cell-based; details: 10 μM
Experimental: (§1) 12-well plates of cells were transfected with 1 μg DNA using Lipofectamine 3000 with sre:luciferase and either GFP, GPR68-GFP or 336X-GFP. After 3 days, these cells were then lysed, and cell extracts were subjected to Steady-Glo luciferase assay (Promega™) according to the manufacturer's instructions. The results were normalized to cell titer, as determined using Cell Titer-Glo luminescence assay (Promega™).
(§2) Loss of internalization can indicate loss of activity or loss of the ability to internalize through beta-arrestin. […] Compared to GFP controls, GPR68-GFP and 336X-GFP transfected cells had higher levels of activity. (n=3 biological replicates done in triplicate). Furthermore, the activity of the truncation variant was still inhibited by OGM. […]

zebrafish embryo [1] = assay: zebrafish embryo phenotype (pigmentation, morphology); format: in vivo
336X-GFP = 336X-GFP (Homo sapiens (Human), UniProt Q15743); assay: SRE-luciferase assay, 336X-GFP truncation variant transfected HEK293T; format: cell-based; details: 10 μM
Chain of 336X-GFP (Q15743 1-335): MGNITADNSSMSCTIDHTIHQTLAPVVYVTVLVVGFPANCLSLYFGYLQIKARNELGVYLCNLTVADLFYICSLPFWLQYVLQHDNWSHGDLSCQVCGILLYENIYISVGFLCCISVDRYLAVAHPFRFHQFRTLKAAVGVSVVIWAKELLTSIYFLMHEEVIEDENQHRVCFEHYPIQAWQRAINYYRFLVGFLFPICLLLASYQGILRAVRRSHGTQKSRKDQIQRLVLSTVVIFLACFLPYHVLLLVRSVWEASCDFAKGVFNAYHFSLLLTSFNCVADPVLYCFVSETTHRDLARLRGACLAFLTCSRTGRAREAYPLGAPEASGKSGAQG
Experimental: as §1
A deletion between amino acid 336 and the beginning of GFP was generated from the MCSV:GPR68-GFP plasmid using the Q5 mutagenesis kit (NEB).
as §2

zebrafish embryo [2] = assay: foxD3 in situ hybridization of neural crest progenitors; details: in vivo
Experimental: In situ hybridization was performed as previously described (Westerfield, 2000). Zebrafish foxD3 probes were synthesized as previously described (Stewart et al., 2006).
To identify if neural crest progenitors were perturbed by OGM, foxD3 staining was performed. This identified no difference. […] The views on the right show a magnification of the indicated area, with arrows showing positive staining along the dorsal ridge of the embryo.

158 GPCRs = assay: Millipore GPCR profiling, agonist and antagonist activity; format: cell-based; details: 10 μM
U87 cells = assay: clonogenicity of U87 cells (crystal violet); format: cell-based; details: 0.1-2 uM, 12 days
Experimental: U87 cells were plated at 400 cells per well in a 6-well plate and on the next day were treated with increasing concentrations of OGM2 for 12 days. The doses were 0 uM (DMSO control) 0.1 μM 0.5 uM, 1 uM, 1.5 uM and 2 uM, as labelled. The plate was fixed with formalin and stained with crystal violet.

[3] = system: U138 glioblastoma cell line; assay: 3D tumor spheroid growth, U138; format: cell-based; details: U138, 5 days of treatment
Experimental: (§3) Tumor spheroid cultures are a more physiological model of tumor growth than typical 2D cell culture. Temozolomide sensitive U87 (FIG. 18A) and Temozolomide insensitive U138 (FIG. 18B) glioblastoma cell lines were plated in low attachment round bottom 96-well plates and allowed to form tumor spheroids for 3 days (T0). At T0, spheroids were imaged using Lionheart™ (HCS) High-Content Imaging Systems (Biotek™) and then were exposed to increasing doses of either Temozolomide or OGM2. After 5 days of treatment the spheroids were imaged again (T5). The size (area) of the spheroids after 5 days of treatment was quantified, and the average size of the spheroids at T0 is depicted in red.

[4] = system: U138 glioblastoma cell line; assay: 2D cell viability (cell titer blue), U138; format: cell-based; details: U138, 72 hours
Experimental: (§4) Temozolomide is the standard of care for glioblastoma but only works on 30% of patients. Temozolomide sensitive U87 (FIG. 17A) and Temozolomide insensitive U138 (FIG. 17B) glioblastoma cell lines were plated in 96-well plates and exposed to increasing doses of either Temozolomide or OGM2. The viability of cells was assayed using cell titer blue after 72 hours, and data was normalized to DMSO vehicle control. See results in FIG. 17.

[5] = system: U87 glioblastoma cell line; assay: 3D tumor spheroid growth, U87; format: cell-based; details: U87, 5 days of treatment
Experimental: as §3

WM115 melanoma cell line = assay: scratch assay for migration, WM115; format: cell-based, human; details: OGM 5 μM, EIPA 10 μM, 20 hours
Experimental: (§5) Cells were grown to confluence and the cells were denuded with a P200 tip. A medium change was done to add fresh medium, remove loose cells and add compounds OGM (5 μM) and EIPA (10 μM). The area of the scratch was observed 20 hours later.
(§6) Since there are numerous parallels are found between neural crest cells and cancer during migration, we examined whether OGM could inhibit the migration of cells in human melanoma cell lines (Oppitz et al., 2007; Schriek et al., 2005; Sinnberg et al., 2018). […] A2058, MeWo and WM115 cells were grown to confluence and a stripe of cells were denuded with a p200 pipette tip “scratch” and rinsed with PBS. Cells were treated with OGM or EIPA, or DMSO and incubated in low serum media. Imaging was done at 30 minutes after “scratch” and then 20 hours afterwards. Areas were then measured and normalized to the initial area.
(§7) Previous studies with the MV3 melanoma cell line have shown that disruption of proton efflux with EIPA inhibition of NHE1 can also reduce melanoma motility (Ludwig et al., 2013; Schneider et al., 2009; Stock et al., 2007, 2005; Stüwe et al., 2007). […] Although the expression of GPR68 and other proton-sensing receptors have been characterized in various skin cancers (Merkel cell carcinoma, dermatofibrosarcoma protuberans, atypical fibroxanthoma, and pleomorphic dermal sarcoma), expression in melanoma cell lines has not investigated (Nassios et al., 2019).

MeWo melanoma cell line = assay: scratch assay for migration, MeWo; format: cell-based, human; details: OGM 5 μM, EIPA 10 μM, 20 hours
Experimental: as §5, §6, §7

WM115 cells = assay: agarose drop assay (3D model of melanoma extravasation); format: cell-based, human; details: 5 μM, 5 days
Experimental: WM115 cells were trypsinized and resuspended at 100,000 cells per mL in low melt agarose. A 10 μl drop of the cell mixture was added to 12-well plate. After solidifying Normal culture media was added with either DMSO 0.5% or OGM 5 μM. The area around the agarose drop was visualized manually with light microscopy. The cells were incubated for 5 days and visualized. Cells outside of the agarose drop were visualized and quantitated.
FIG. 8A is a schematic of the agarose drop assay. WM115 cells were mixed into a low melt agarose solution and single 10 μL drops were seeded onto cell culture plates. After solidifying, media containing OGM (5 μM) or CTL (DMSO […]) was added and wells were observed 5 days later. Immediately after media addition no cells are on the plate outside of the agarose gel in CTL or OGM. Five days after seeding cells are observed outside of the gel (Black arrows) in CTL but not in OGM. […] Quantification on the number of cells that escaped from an average of 5 gel drop replicates. FIG. 8B through FIG. 8F show the cells after media addition. No cells are on the plate outside of the agarose gel in CTL or OGM. Five days after seeding, cells are observed outside of the gel (arrows) in CTL but not in OGM.

A2058 melanoma cell line = assay: scratch assay for migration, A2058; format: cell-based, human; details: OGM 5 μM, EIPA 10 μM, 20 hours
Experimental: as §5, §6, §7

[6] = system: U87 glioblastoma cell line; assay: 2D cell viability (cell titer blue), U87; format: cell-based; details: U87, 72 hours
Experimental: as §4

Chain of GPR68-GFP (Q15743 whole entry): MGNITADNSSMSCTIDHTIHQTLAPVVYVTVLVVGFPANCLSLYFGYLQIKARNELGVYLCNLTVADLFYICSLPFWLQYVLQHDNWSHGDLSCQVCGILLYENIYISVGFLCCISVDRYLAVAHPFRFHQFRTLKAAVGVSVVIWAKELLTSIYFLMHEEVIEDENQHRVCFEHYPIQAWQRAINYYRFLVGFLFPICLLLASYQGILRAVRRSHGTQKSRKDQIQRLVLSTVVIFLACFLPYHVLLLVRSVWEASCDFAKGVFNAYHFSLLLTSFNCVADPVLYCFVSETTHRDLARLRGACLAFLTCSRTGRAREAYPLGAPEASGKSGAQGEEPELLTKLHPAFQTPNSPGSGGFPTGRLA

CCc1ccc2c(c1)C1(NN=C(c3cccc4ccccc34)S1)C(=O)N2 (stereo not drawn) [OGM, 5-ethyl-5′-naphthalen-1-ylspiro[1H-indole-3,2′-3H-1,3,4-thiadiazole]-2-one]
SRE-luciferase activity (GPR68-GFP): reduced the level of luciferase activity
induced morphological phenotype (zebrafish embryo [1]; OGM 10 uM, 48 hours pf): induced ventral curvature, wavy notochord, shortened body axis, craniofacial defects, and loss of retinal iridophores
time window of pigmentation defect (zebrafish embryo [1]; temporal phenotypic analysis, treatment windows 0-36 hours pf): dependent on treatment during the 12 hours pf-18 hours pf time window
SRE-luciferase activity (336X-GFP): reduced the level of luciferase activity
foxD3 staining of neural crest progenitors (zebrafish embryo [2]): no difference
agonist and antagonist activity against 158 GPCRs (158 GPCRs): Only GPR68, LPA1 and GPR14 (UT2R) showed significant activity
clonogenicity (U87 cells): Reduces Clonogenicity
spheroid size versus Temozolomide [3]: more effective than Temozolomide
viability versus Temozolomide [4]: more effective than Temozolomide
spheroid size versus Temozolomide [5]: more effective than Temozolomide
migration in scratch assay (WM115 melanoma cell line): inhibited migration
migration in scratch assay (MeWo melanoma cell line): inhibited migration
migration out of agarose drop (WM115 cells): migrated significantly less
migration in scratch assay (A2058 melanoma cell line): inhibited migration
viability versus Temozolomide [6]: more effective than Temozolomide
